In PubChem BioAssay (NCI):
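Exposure lasted 48 hours, with cells grown in 96-well plates and compounds tested at five concentrations. TGI: total growth inhibition.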

Columns and labels:
Assay in all cases: DTP human tumour cell line panel, 48 h
786-0 renal = tested on: 786-0 renal
A498 renal = tested on: A498 renal
A549 NSCLC = tested on: A549 NSCLC
ACHN renal = tested on: ACHN renal
BT-549 breast = tested on: BT-549 breast
CAKI-1 renal = tested on: CAKI-1 renal
CCRF-CEM leukemia = tested on: CCRF-CEM leukemia
COLO 205 colon = tested on: COLO 205 colon
DU-145 prostate = tested on: DU-145 prostate
EKVX NSCLC = tested on: EKVX NSCLC
HCC-2998 colon = tested on: HCC-2998 colon
HCT-116 colon = tested on: HCT-116 colon
HCT-15 colon = tested on: HCT-15 colon
HL-60(TB) leukemia = tested on: HL-60(TB) leukemia
HOP-62 NSCLC = tested on: HOP-62 NSCLC
HOP-92 NSCLC = tested on: HOP-92 NSCLC
HS 578T breast = tested on: HS 578T breast
HT29 colon = tested on: HT29 colon
IGROV1 ovarian = tested on: IGROV1 ovarian
K-562 leukemia = tested on: K-562 leukemia
KM12 colon = tested on: KM12 colon
LOX IMVI melanoma = tested on: LOX IMVI melanoma
M14 melanoma = tested on: M14 melanoma
MALME-3M melanoma = tested on: MALME-3M melanoma
MCF7 breast = tested on: MCF7 breast
MDA-MB-231 breast = tested on: MDA-MB-231 breast
MDA-MB-435 = tested on: MDA-MB-435
MDA-N = tested on: MDA-N
MOLT-4 leukemia = tested on: MOLT-4 leukemia
NCI-H226 lung = tested on: NCI-H226 lung
NCI-H23 lung = tested on: NCI-H23 lung
NCI-H460 lung = tested on: NCI-H460 lung
NCI-H522 lung = tested on: NCI-H522 lung
NCI/ADR-RES ovarian = tested on: NCI/ADR-RES ovarian
OVCAR-3 ovarian = tested on: OVCAR-3 ovarian
OVCAR-4 ovarian = tested on: OVCAR-4 ovarian
OVCAR-5 ovarian = tested on: OVCAR-5 ovarian
OVCAR-8 ovarian = tested on: OVCAR-8 ovarian
PC-3 prostate = tested on: PC-3 prostate
RPMI-8226 leukemia = tested on: RPMI-8226 leukemia
RXF 393 renal = tested on: RXF 393 renal
SF-268 CNS = tested on: SF-268 CNS
SF-295 CNS = tested on: SF-295 CNS
SF-539 CNS = tested on: SF-539 CNS
SK-MEL-2 melanoma = tested on: SK-MEL-2 melanoma
SK-MEL-28 melanoma = tested on: SK-MEL-28 melanoma
SK-MEL-5 melanoma = tested on: SK-MEL-5 melanoma
SK-OV-3 ovarian = tested on: SK-OV-3 ovarian
SN12C renal = tested on: SN12C renal
SNB-19 CNS = tested on: SNB-19 CNS
SW-620 colon = tested on: SW-620 colon
T-47D breast = tested on: T-47D breast
TK-10 renal = tested on: TK-10 renal
U251 CNS = tested on: U251 CNS
UACC-257 melanoma = tested on: UACC-257 melanoma
UACC-62 melanoma = tested on: UACC-62 melanoma
UO-31 renal = tested on: UO-31 renal
SNB-75 CNS = tested on: SNB-75 CNS
SR leukemia = tested on: SR leukemia

## COc1ccc(C2=NN(C(=O)c3ccccc3)C(O)(c3cc(F)c(Cl)cc3Cl)C2)cc1OC (stereo unspecified)
786-0 renal
  TGI: > 100 µM
A498 renal
  TGI: > 100 µM
A549 NSCLC
  TGI: > 100 µM
ACHN renal
  TGI: > 100 µM
BT-549 breast
  TGI: > 100 µM
CAKI-1 renal
  TGI: > 100 µM
CCRF-CEM leukemia
  TGI: > 100 µM
COLO 205 colon
  TGI: > 100 µM
DU-145 prostate
  TGI: > 100 µM
EKVX NSCLC
  TGI: > 100 µM
HCC-2998 colon
  TGI: > 100 µM
HCT-116 colon
  TGI: > 100 µM
HCT-15 colon
  TGI: > 100 µM
HL-60(TB) leukemia
  TGI: > 100 µM
HOP-62 NSCLC
  TGI: 43 µM
HOP-92 NSCLC
  TGI: 78.9 µM
HS 578T breast
  TGI: > 100 µM
HT29 colon
  TGI: > 100 µM
IGROV1 ovarian
  TGI: > 100 µM
K-562 leukemia
  TGI: > 100 µM
KM12 colon
  TGI: > 100 µM
LOX IMVI melanoma
  TGI: > 100 µM
M14 melanoma
  TGI: > 100 µM
MALME-3M melanoma
  TGI: > 100 µM
MCF7 breast
  TGI: > 100 µM
MDA-MB-231 breast
  TGI: > 100 µM
MDA-MB-435
  TGI: > 100 µM
MDA-N
  TGI: > 100 µM
MOLT-4 leukemia
  TGI: > 100 µM
NCI-H226 lung
  TGI: > 100 µM
NCI-H23 lung
  TGI: > 100 µM
NCI-H460 lung
  TGI: > 100 µM
NCI-H522 lung
  TGI: > 100 µM
NCI/ADR-RES ovarian
  TGI: > 100 µM
OVCAR-3 ovarian
  TGI: 69.3 µM
OVCAR-4 ovarian
  TGI: 53.1 µM
OVCAR-5 ovarian
  TGI: > 100 µM
OVCAR-8 ovarian
  TGI: > 100 µM
PC-3 prostate
  TGI: > 100 µM
RPMI-8226 leukemia
  TGI: > 100 µM
RXF 393 renal
  TGI: 55.5 µM
SF-268 CNS
  TGI: > 100 µM
SF-295 CNS
  TGI: > 100 µM
SF-539 CNS
  TGI: > 100 µM
SK-MEL-2 melanoma
  TGI: 91.7 µM
SK-MEL-28 melanoma
  TGI: > 100 µM
SK-MEL-5 melanoma
  TGI: > 100 µM
SK-OV-3 ovarian
  TGI: 48.8 µM
SN12C renal
  TGI: > 100 µM
SNB-19 CNS
  TGI: > 100 µM
SW-620 colon
  TGI: > 100 µM
T-47D breast
  TGI: > 100 µM
TK-10 renal
  TGI: 98.1 µM
U251 CNS
  TGI: > 100 µM
UACC-257 melanoma
  TGI: > 100 µM
UACC-62 melanoma
  TGI: > 100 µM
UO-31 renal
  TGI: 89.4 µM

## NC(=O)NC(CC(=O)O)C(=O)O (stereo unspecified)
786-0 renal
  TGI: > 100 µM
A498 renal
  TGI: > 100 µM
A549 NSCLC
  TGI: > 100 µM
ACHN renal
  TGI: > 100 µM
BT-549 breast
  TGI: > 100 µM
CAKI-1 renal
  TGI: > 100 µM
CCRF-CEM leukemia
  TGI: > 100 µM
DU-145 prostate
  TGI: > 100 µM
EKVX NSCLC
  TGI: > 100 µM
HCC-2998 colon
  TGI: > 100 µM
HCT-116 colon
  TGI: > 100 µM
HCT-15 colon
  TGI: > 100 µM
HOP-62 NSCLC
  TGI: > 100 µM
HOP-92 NSCLC
  TGI: > 100 µM
HS 578T breast
  TGI: > 100 µM
HT29 colon
  TGI: > 100 µM
IGROV1 ovarian
  TGI: > 100 µM
K-562 leukemia
  TGI: > 100 µM
KM12 colon
  TGI: > 100 µM
LOX IMVI melanoma
  TGI: > 100 µM
M14 melanoma
  TGI: > 100 µM
MALME-3M melanoma
  TGI: > 100 µM
MDA-MB-231 breast
  TGI: > 100 µM
MDA-MB-435
  TGI: > 100 µM
MDA-N
  TGI: > 100 µM
MOLT-4 leukemia
  TGI: > 100 µM
NCI-H226 lung
  TGI: > 100 µM
NCI-H23 lung
  TGI: > 100 µM
NCI-H460 lung
  TGI: > 100 µM
NCI-H522 lung
  TGI: > 100 µM
NCI/ADR-RES ovarian
  TGI: > 100 µM
OVCAR-3 ovarian
  TGI: > 100 µM
OVCAR-4 ovarian
  TGI: > 100 µM
OVCAR-5 ovarian
  TGI: > 100 µM
OVCAR-8 ovarian
  TGI: > 100 µM
PC-3 prostate
  TGI: > 100 µM
RPMI-8226 leukemia
  TGI: > 100 µM
RXF 393 renal
  TGI: > 100 µM
SF-268 CNS
  TGI: > 100 µM
SF-295 CNS
  TGI: > 100 µM
SK-MEL-2 melanoma
  TGI: > 100 µM
SK-MEL-28 melanoma
  TGI: > 100 µM
SK-MEL-5 melanoma
  TGI: > 100 µM
SN12C renal
  TGI: > 100 µM
SNB-19 CNS
  TGI: > 100 µM
SNB-75 CNS
  TGI: > 100 µM
SR leukemia
  TGI: > 100 µM
SW-620 colon
  TGI: > 100 µM
T-47D breast
  TGI: > 100 µM
TK-10 renal
  TGI: > 100 µM
U251 CNS
  TGI: > 100 µM
UACC-257 melanoma
  TGI: > 100 µM
UACC-62 melanoma
  TGI: > 100 µM
UO-31 renal
  TGI: > 100 µM
